Reference: PubChem BioAssay (NCI)
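Interpolation was linear, between the two tested concentrations surrounding the appropriate level; five concentrations were tested over 48 hours in 96-well plates. GI50 is the concentration that inhibits growth by half. TGI marks complete inhibition of growth.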

Assays:
Assay in all cases: DTP human tumour cell line panel, 48 h
[1] = system: U251 CNS
[2] = system: COLO 205 colon
[3] = system: T-47D breast
[4] = system: UACC-257 melanoma
[5] = system: MOLT-4 leukemia
[6] = system: LOX IMVI melanoma
[7] = system: OVCAR-5 ovarian
[8] = system: EKVX NSCLC
[9] = system: SK-MEL-2 melanoma
[10] = system: SNB-19 CNS

| Compound | GI50 [1] | TGI [1] | GI50 [2] | TGI [2] | GI50 [3] | TGI [3] | GI50 [4] | TGI [4] | GI50 [5] | TGI [5] | GI50 [6] | TGI [6] | GI50 [7] | TGI [7] | GI50 [8] | TGI [8] | GI50 [9] | TGI [9] | GI50 [10] | TGI [10] |
| --- | --- | --- | --- | --- | --- | --- | --- | --- | --- | --- | --- | --- | --- | --- | --- | --- | --- | --- | --- | --- |
| CCN(CC)C(=S)SSC(C)C | 13.8 µM | 32.1 µM | 0.0412 µM | 20.6 µM | 14.2 µM | 33.7 µM | 21.7 µM | 95.8 µM | 3.76 µM | 25.4 µM | 4.67 µM | 24.1 µM | 18.3 µM | 32.6 µM | 27.4 µM | 70.4 µM | 23.3 µM | 62 µM | 31.8 µM | > 100 µM |
| COc1ccc(-n2c(=S)sc3c(Cl)nc(C)nc32)c(OC)c1 | 1.91 µM | 3.65 µM | 3.83 µM | 13.3 µM | 6.42 µM | 21.6 µM | 2.35 µM | 5.62 µM | 2.12 µM | 5.48 µM | 1.71 µM | 3.19 µM | 6.15 µM | 20.9 µM | 4.55 µM | 17 µM | 2.04 µM | 3.97 µM | 2.4 µM | 5.42 µM |
| N#C/C(=C\c1ccc2[nH]ccc2c1)C(=O)NCCCCNC(=O)/C(C#N)=C/c1ccc2[nH]ccc2c1 |  | > 31.6 µM |  | > 31.6 µM |  | > 10 µM |  | > 31.6 µM |  | > 31.6 µM |  | > 31.6 µM |  | > 31.6 µM |  | > 31.6 µM |  | > 31.6 µM |  | > 31.6 µM |
| COc1cc(N2C(=O)[C@H](Cl)C2c2ccc(SC)cc2)cc(OC)c1OC (stereo partly drawn) | 0.124 µM | > 100 µM | 0.0677 µM | 11.4 µM | 41.3 µM | > 100 µM | 32.2 µM | > 100 µM | 0.284 µM | > 100 µM | 0.0635 µM | > 100 µM | 0.411 µM | > 100 µM | 0.209 µM | > 100 µM | 0.3 µM | > 100 µM | 0.0965 µM | > 100 µM |
| COC(=O)C(C(=O)C(=O)Nc1c(C)cccc1C(C)(C)C)c1nc2ccc(Cl)cc2[nH]c1=O (stereo not drawn) |  | > 100 µM |  |  |  | > 100 µM |  | > 100 µM |  | > 100 µM |  | > 100 µM |  | > 100 µM |  | > 100 µM |  | > 100 µM |  | > 100 µM |
| Oc1ccc(Cl)cc1C=Nc1cnc2ccccc2c1 |  | > 70.6 µM |  | > 100 µM |  | 51.3 µM |  | 45.3 µM |  | 47.2 µM |  | > 100 µM |  | > 100 µM |  | > 86 µM |  | > 80.6 µM |  | > 100 µM |
| Cc1cccc(C2NC(=O)c3ccccc3N2)c1 (stereo not drawn) |  | > 31.6 µM |  | > 100 µM |  | > 100 µM |  | > 100 µM |  | > 23.9 µM |  | > 100 µM |  | > 100 µM |  | > 100 µM |  | > 42.8 µM |  | > 100 µM |
| O=c1[nH]c(C2CCCN2)nc2c1oc1ccc(Cl)cc12 (stereo not drawn) | 36.2 µM | > 100 µM | 26 µM | > 100 µM | 30.5 µM | > 100 µM | 54.8 µM | > 100 µM | > 100 µM | > 100 µM | 68 µM | > 100 µM | > 100 µM | > 100 µM |  |  | > 100 µM | > 100 µM | 68.1 µM | > 100 µM |
| CCCCCCCC/C=C/CCCCCCCC1=NC(C)(C)CN1C(C)(C)CO |  |  | 1.88 µM | 3.42 µM | 3.39 µM | 11.8 µM | 1.76 µM | 3.54 µM | 2.62 µM | 5.81 µM | 1.61 µM | 2.98 µM | 2.15 µM | 5.09 µM | 1.53 µM | 4.36 µM | 1.76 µM | 3.67 µM | 2.39 µM | 6.55 µM |
| O=C(Nc1sc2c(c1C(=O)O)CCCC2)c1ccco1 | 16.4 µM | > 50 µM | 44.2 µM | > 50 µM | > 50 µM | > 50 µM | > 50 µM | > 50 µM | > 50 µM | > 50 µM | 22.8 µM | > 50 µM |  |  | 36.3 µM | > 50 µM | > 50 µM | > 50 µM | 29.5 µM | > 50 µM |
| NCCO/C=C/C(N)C(=O)O (stereo not drawn) |  | > 100 µM |  | > 100 µM |  | > 100 µM |  | > 100 µM |  |  |  | > 100 µM |  | > 100 µM |  | > 100 µM |  | > 100 µM |  | > 100 µM |
| OCc1ccc(N(Cc2ccc(F)cc2)Cc2ccc(F)cc2)cc1Cl | 5.5 µM | 19.4 µM | 11.7 µM | 24.4 µM | 3.31 µM | 15.4 µM | 3.74 µM | 15.6 µM | 7.84 µM | 30.1 µM | 9.51 µM | 23.3 µM | 2.11 µM | 11.9 µM |  |  | 10.6 µM | 26.9 µM | 12.9 µM | 31.6 µM |
| CCOC(=O)Nc1ccc2nc(-c3cscn3)[nH]c2c1 | 4.05 µM | > 100 µM | 3.64 µM | 18.9 µM | 5.32 µM | > 100 µM | 5.21 µM | > 100 µM | 5.31 µM | > 100 µM | 5.18 µM | > 100 µM | 26.9 µM | > 100 µM |  |  | 3.25 µM | > 100 µM | 5.73 µM | > 100 µM |
